# Results published in patent publication US10093929B2, “Modular RNA regulators and methods” (STC.UNM, priority 2013, dated 2018).
# Key:
# [1] = test system: RNase III; settings: cited from earlier work
# [2] = molecular target: FKBP12 (Homo sapiens, UniProt P62942); settings: cited from earlier work
# [3] = test system: FKBP12-fusion proteins (GAL4DBD-FKBP, VPAD-FKBP); assay: FK1012-inducible luciferase transcription assay in CHO cells; assay type: cell-based; settings: 200 nM, 10 hours
# Method: Previously, syntheses of FK1012 variants either involve multi-step transformations with 18% overall yields, or a single-step cross metathesis with 50% yield with a 22-hour reaction time. […] Using dithiothreitol (DTT) as the linker, two equivalents of tacrolimus and one equivalent of DTT were coupled under the TEC reaction condition to produce FK1012-DT (Compound 15, FIG. 12) in one step within 15 minutes in quantitative yield (FIG. 12, Scheme (a)). […] For the assay, two DNA constructs were prepared, each one encoding an FKBP12-fusion protein. […]
# Cells in 24-well plates were lysed with 100 μL of 1× Passive Lysis Buffer (Promega Corporation, Madison, Wis.) at room temperature for 10 minutes on a shaker. […] 90 μL of Luciferase substrate solution (5 mg of D-luciferin and 7 mg of coenzyme A in 33mL of Luciferase reading buffer, which includes 20 mM tricine, 1.07 mM (MgCO3)4Mg(OH)2.5H2O, 2.67 mM MgSO4, 0.1 mM EDTA, 33.3 mM dithiothreitol and 0.53 mM ATP in water) was added into each well with cell lysates. The signal was read with a 3 s delay and 1 s integration with GLOMAX multi-detection system (Promega Corp., Madison, Wis.). Obtained data were analyzed by KALEIDAGRAPH (Synergy Software, Reading, Pa.).
# FKBP12, sequence (P62942 whole entry, species assumed, the tested form may be a part): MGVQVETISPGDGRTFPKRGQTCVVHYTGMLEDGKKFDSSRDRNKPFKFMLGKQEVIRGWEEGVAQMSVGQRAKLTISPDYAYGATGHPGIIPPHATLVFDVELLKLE
compound,measurement,setting,value
O=C1c2ccccc2C(=O)N1O [N-hydroxyphthalimide],affinity as RNase III inhibitor,[1],low affinity
"CCC(C)(C)C(=O)C(=O)N1CCCC[C@H]1C(=O)O[C@H](CCc1ccc(OC)c(OC)c1)c1cccc(N)c1 [SLF, (1R)-1-(3-aminophenyl)-3-(3,4-dimethoxyphenyl)propyl ester-1-(3,3-dimethyl-1,2-dioxopentyl)-2S-piperidinecarboxylic acid]",decrease of affinity for FKBP12 compared to tacrolimus,[2],10 fold
"C=CC[C@@H]1/C=C(\C)C[C@H](C)C[C@H](OC)[C@H]2O[C@@](O)(C(=O)C(=O)N3CCCC[C@H]3C(=O)O[C@H](/C(C)=C/[C@@H]3CC[C@@H](O)[C@H](OC)C3)[C@H](C)[C@@H](O)CC1=O)[C@H](C)C[C@@H]2OC [tacrolimus, Tacrolimus]",induction of luciferase (compared to the no drug control),[3],not observed
